In assay [1] the target is T1, human GPR40 (A2 site) (Homo sapiens, UniProt O14842).
T1 construct: full length recombinant human GPR40 (GPR40) cDNA; expressed in transfected cells; host or cells: HEK 293, stably transfected; crude cell surface membranes
Nature of the assay: A2 site radioligand binding with [3H]-AM-1638. The method, then:
Crude cell surface membranes were prepared from human embryonic kidney 293 (HEK 293) cells stably transfected (for the wild type) or transiently transfected (for the mutants and corresponding wild type) with full length recombinant human GPR40 (GPR40) cDNA, using differential centrifugation methods.
A2 Site Binding. 10 µL of compound diluted in 100% DMSO and 90 µL of Assay Buffer (50 mM Tris-HCl, pH 7.5, 10 mM CaCl2, 10 mM MgCl2, 0.1% w/v Bacitracin, 2.5% w/v dextran charcoal-treated FBS) were added to a deep 96-well polypropylene assay plate (Beckman Coulter). Two hundred μl of [^3H]-AM-1638 (84 Ci/mmol, Quotient Bioresearch Radiochemicals, Ltd.; 0.5 nM final concentration) and 200 µL of GPR40 membranes (5 µg/well), both diluted in Assay Buffer, were added to the assay plate, followed by a 1 min shake and a 1 h incubation at room temperature (22 °C).
Assays were terminated by filtration through GF/C glass fiber filtermats (Perkin Elmer) presoaked in 50 mM Tris–HCl, pH 7.5, using a Mach III cell harvester (TomTec). Filtermats were washed two times with 5 mL of ice-cold 50 mM Tris–HCl, pH 7.5 buffer, dried 1 h in a convection oven at 60 °C and embedded with Meltilex A solid scintillant (Perkin Elmer). Radioactivity was determined as counts per min (cpm) using a Trilux Microbeta plate scintillation counter (Perkin Elmer).

The target in assay [2] is T2, human GPR40 (Homo sapiens, UniProt O14842).
T2 construct: HEK293 cells stably overexpressing full length human GPR40; expressed in transfected cells
The experiment in a line: Ca2+ mobilization assay (FLIPR), HEK293 cells stably overexpressing GPR40. The conditions noted are these: for Ca2+ mobilization (FLIPR) Top: relative to 500 µM linoleic acid; for agonist type in Ca2+ mobilization assay: relative to 500 µM of the natural ligand, linoleic acid. It is filed as cell-based. The method, then: HEK293 cells stably overexpressing full length human GPR40 were plated (50K cells/well) into 96-well microtiter plates using Dulbecco’s Modified Eagle’s Medium (DMEM) supplemented with 10% certified fetal bovine serum (FBS), 20 mM HEPES, pH 7.4, 1 mM Sodium Pyruvate, 100 U/mL Penicillin, 100 µg/mL Streptomycin, and 800 µg/mL Geneticin. The cells were incubated overnight at 37 °C and 5% CO2. Calcium 4 dye (Molecular Devices) diluted in assay buffer was added (100 µL per well) to the cell plates, followed by a 1 h incubation in the dark at 25 °C. Test compounds were serially diluted three-fold in 100% DMSO and immediately diluted in assay buffer. […] Receptor activation was immediately measured as an increase in intracellular calcium using the FLIPR® over 3 min. To determine agonist responses, relative fluorescence units (RFUs) over 60 reads were calculated per well and used to calculate percent stimulation relative to 500 µM of the natural ligand, linoleic acid, response. EC50 values were calculated by plotting test compound concentration vs. percent stimulation using a 4-parameter logistic curve fitting equation.
On the technique in general: Calcium assays in cells follow changes in intracellular calcium, usually with a dye or a luminescent sensor.

Assay [3] has as its target T3, Human GPR120 (Homo sapiens, UniProt Q5NUL3).
T3 sequence (Q5NUL3 1-361): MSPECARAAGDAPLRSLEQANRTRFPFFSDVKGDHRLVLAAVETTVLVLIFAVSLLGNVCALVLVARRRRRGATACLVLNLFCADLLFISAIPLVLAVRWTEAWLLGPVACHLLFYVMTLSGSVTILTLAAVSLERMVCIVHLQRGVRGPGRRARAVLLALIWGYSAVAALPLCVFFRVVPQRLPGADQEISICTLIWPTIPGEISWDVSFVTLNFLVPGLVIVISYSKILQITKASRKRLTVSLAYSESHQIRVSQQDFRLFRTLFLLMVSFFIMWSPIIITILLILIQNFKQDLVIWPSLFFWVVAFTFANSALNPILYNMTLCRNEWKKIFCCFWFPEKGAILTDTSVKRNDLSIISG
The experiment in a line: Human GPR120 binding. The conditions noted are these: Supplementary Table 1.

Assay [4] deals with T3, Human GPR120. The experiment in a line: Human GPR120 Calcium (FLIPR). It is filed as cell-based. The conditions noted are these: Supplementary Table 1.
The target in assay [5] is T3, Human GPR120. Nature of the assay: Human GPR120 b-arrestin. It counts as cell-based. The conditions noted are these: Supplementary Table 1.
The target of assay [6] is T4, human PPARalpha (Homo sapiens, UniProt Q07869).
T4 sequence (Q07869 1-468): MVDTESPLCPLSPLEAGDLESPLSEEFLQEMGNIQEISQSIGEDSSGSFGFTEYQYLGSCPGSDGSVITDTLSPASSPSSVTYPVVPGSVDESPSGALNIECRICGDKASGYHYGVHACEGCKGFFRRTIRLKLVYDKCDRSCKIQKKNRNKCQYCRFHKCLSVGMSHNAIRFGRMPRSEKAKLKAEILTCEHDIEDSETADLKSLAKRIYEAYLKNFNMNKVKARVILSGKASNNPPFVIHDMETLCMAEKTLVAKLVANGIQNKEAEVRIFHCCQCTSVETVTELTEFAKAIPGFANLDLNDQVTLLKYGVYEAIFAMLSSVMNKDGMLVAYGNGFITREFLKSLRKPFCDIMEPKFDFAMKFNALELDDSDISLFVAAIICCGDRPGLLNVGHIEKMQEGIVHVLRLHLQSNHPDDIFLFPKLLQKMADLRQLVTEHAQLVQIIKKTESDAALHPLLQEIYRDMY
Nature of the assay: human PPARalpha binding. As to conditions: Supplementary Table 1.

Assay [7] deals with T5, human PPARdelta (Homo sapiens, UniProt Q03181).
T5 sequence (Q03181 1-441): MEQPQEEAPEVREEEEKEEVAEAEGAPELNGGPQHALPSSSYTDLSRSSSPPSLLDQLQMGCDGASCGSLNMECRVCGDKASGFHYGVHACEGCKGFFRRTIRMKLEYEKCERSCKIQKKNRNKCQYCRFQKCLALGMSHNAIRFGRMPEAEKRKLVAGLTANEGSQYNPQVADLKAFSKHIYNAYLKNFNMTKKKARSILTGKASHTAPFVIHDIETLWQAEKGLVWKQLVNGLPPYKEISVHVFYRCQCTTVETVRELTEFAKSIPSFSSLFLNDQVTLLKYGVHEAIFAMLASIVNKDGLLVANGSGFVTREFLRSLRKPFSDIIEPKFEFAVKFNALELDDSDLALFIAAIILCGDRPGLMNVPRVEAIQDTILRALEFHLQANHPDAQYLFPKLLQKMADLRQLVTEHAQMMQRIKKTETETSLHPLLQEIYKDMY
Nature of the assay: human PPARdelta binding. The conditions noted are these: Supplementary Table 1.

The subject of assay [8] is GFP. Nature of the assay: cAMP accumulation assay, GFP control. For orientation: cAMP levels reflect the balance of adenylyl cyclase and phosphodiesterase activity.
Method: HEK293 cells transiently transfected with Promega’s cAMP response element (CRE/luc2P) and a GPR40 construct were plated (40K cells/well) into 96-well microtiter plates using Dulbecco’s Modified Eagle’s Medium (DMEM) supplemented with 10% FBS, 20 mM HEPES, pH 7.4, 100 U/mL Penicillin, 100 µg/mL Streptomycin, and 800 µg/mL Geneticin. Test compounds were serially diluted three-fold in 100% DMSO and immediately diluted in media. […] EC50 values were calculated using a four-parameter logistic curve fitting equation.

As usually defined, the Ki is the equilibrium dissociation constant of an inhibitor or competing ligand from its target. A word on the EC50: it is the concentration at which the effect is half-maximal. Broadly, the IC50 is the concentration that inhibits the measured activity by half. A low value points to greater potency in that assay.

Values joined by “and” are separate entries in the source; they are usually repeats but may differ in a detail not shown here. Identical values can stand only once. Like-named read-outs stand apart in the source and are kept apart here.

T1 sequence (O14842 whole entry): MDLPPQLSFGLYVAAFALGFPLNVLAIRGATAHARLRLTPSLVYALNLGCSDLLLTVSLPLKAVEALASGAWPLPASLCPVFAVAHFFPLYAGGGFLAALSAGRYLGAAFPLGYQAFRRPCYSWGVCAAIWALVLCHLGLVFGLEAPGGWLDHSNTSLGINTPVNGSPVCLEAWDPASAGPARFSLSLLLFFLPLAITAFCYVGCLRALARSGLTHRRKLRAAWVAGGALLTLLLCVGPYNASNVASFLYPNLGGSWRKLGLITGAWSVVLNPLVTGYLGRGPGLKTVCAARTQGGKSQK
T2 sequence (O14842 whole entry): as above

For the molecule `COc1ccc(C(=O)N(CC(C)(C)C)c2cccc(C)n2)c(N2CCC(c3cc4ccc([C@@H](CC(=O)O)C5CC5)cc4o3)CC2)c1` [compound 1], the inhibition constant (Ki) is 0.0009 µM in assay [1] (Supplementary Table 1, read-out: Human GPR40 Binding to A2 Ki); 0.00081 µM in assay [1] (competitive radioligand binding, membranes from stably transfected cells, Fig. 1a, read-out: Ki in [3H]-AM-1638 binding); more than 100 µM in assay [3]; more than 10 µM in assay [6]. For the same molecule, the concentration for a half-maximal effect (EC50) in assay [2] (GPR40-Gαq signaling, stably transfected cells, no TAK-875) is 0.072 µM and ~0.072 µM; in assay [4], more than 50 µM; in assay [5] it was more than 100 µM; in assay [8] (Homo sapiens, read-out: cAMP accumulation EC50, GFP) it was more than 30 µM. For the same molecule, the “cooperativity composite factor (Log αβ)” value in assay [2] (compound 1 with TAK-875, operational model, slope constrained to 1) is reported as 1.46. Besides, the “efficacy modulation cooperativity factor (β)” value in assay [2] (cooperativity between TAK-875 and compound 1) amounted to 14. Also, in assay [2] (cooperativity between TAK-875 and compound 1, averages from Figs. 1a and 8a), the “average α-factor” value is reported as 2.1. For the same molecule, in assay [2], the “Ca2+ mobilization (FLIPR) Top” value was 136.3%. For the same molecule, the “agonist type in Ca2+ mobilization assay” value in assay [2] is reported as “full agonist”. The IC50 in assay [7] was more than 10 µM.

`Cc1cc(OCCCS(C)(=O)=O)cc(C)c1-c1cccc(COc2ccc3c(c2)OC[C@H]3CC(=O)O)c1` [TAK-875]: the “effect on [3H]-AM-1638 binding” value in assay [1] (addition of unlabeled compound, Supplementary Fig. 1a) is “enhanced”. Further, in assay [2], the “Ca2+ mobilization (FLIPR) Top” value is listed as 81.67%. In addition, the “agonist type in Ca2+ mobilization assay” value in assay [2] is on record as “partial agonist”. In addition, the inhibitory constant (Ki) in assay [3] is more than 100 µM; in assay [6] it was more than 10 µM. The figures for the EC50 in assay [4] and in assay [5] were more than 50 µM and more than 100 µM, respectively. The same molecule yielded a concentration for half-maximal inhibition (IC50) in assay [7] of more than 10 µM. For the same molecule, the “cAMP accumulation EC50, GFP” value in assay [8] (GFP control, Fig. 6c,d) was “no fit”.
